Laboratory results published in article PMC5794853 (Scientific Reports, 2018).

How the values were obtained:
SaRelP = target: T1, SaRelP (Staphylococcus aureus, UniProt W8U368); test: X-ray crystal structure; assay type: binding; conditions: active site (ATP site), Mg2+, 5 mM AMPCPP, non-hydrolysable ATP analogue
T1 construct: gene ywaC; full length, N-terminal hexahistidine tag, pET24d(+), expressed in E. coli BL21(DE3), homotetramer

BsRelQ [1] = target: T2, BsRelQ (Bacillus subtilis, UniProt O31611, E113A); test: stimulation of ppGpp synthesis, HPLC; assay type: biochemical; conditions: allosteric activator, 200 µM; 5 mM ATP, 0.25 mM GDP/GTP, pH 7.5, 37 °C
T2 construct: gene yjbM; RelQ / SAS1, homotetramer

BsRelQ [2] = target: T3, BsRelQ (Bacillus subtilis, UniProt O31611, E178A); test: stimulation of ppGpp synthesis, HPLC; assay type: biochemical; conditions: allosteric activator, 200 µM; 5 mM ATP, 0.25 mM GDP/GTP, pH 7.5, 37 °C
T3 construct: gene yjbM; RelQ / SAS1, homotetramer

BsRelQ [3] = target: T4, BsRelQ (Bacillus subtilis, UniProt O31611); test: stimulation of ppGpp synthesis, HPLC; assay type: biochemical; conditions: allosteric activator, 0-250 µM; 5 mM ATP, pH 7.5, 20 mM MgCl2
T4 construct: gene yjbM; RelQ / SAS1, homotetramer
T4 sequence (O31611 1-211): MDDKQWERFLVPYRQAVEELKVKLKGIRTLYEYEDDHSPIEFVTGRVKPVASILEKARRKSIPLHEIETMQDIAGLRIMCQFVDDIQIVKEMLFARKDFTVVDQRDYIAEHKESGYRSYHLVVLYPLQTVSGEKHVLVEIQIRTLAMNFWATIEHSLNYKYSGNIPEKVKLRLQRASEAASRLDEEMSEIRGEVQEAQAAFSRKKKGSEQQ

BsRelQ [4] = target: T5, BsRelQ (Bacillus subtilis, UniProt O31611, Q174A); test: stimulation of ppGpp synthesis, HPLC; assay type: biochemical; conditions: allosteric activator, 200 µM; 5 mM ATP, 0.25 mM GDP/GTP, pH 7.5, 37 °C
T5 construct: gene yjbM; RelQ / SAS1, homotetramer

BsRelQ [5] = target: T6, BsRelQ (Bacillus subtilis, UniProt O31611, H111A); test: stimulation of ppGpp synthesis, HPLC; assay type: biochemical; conditions: allosteric activator, 200 µM; 5 mM ATP, 0.25 mM GDP/GTP, pH 7.5, 37 °C
T6 construct: gene yjbM; RelQ / SAS1, homotetramer

[6] = target: RelP from Staphylococcus aureus (SaRelP) (Staphylococcus aureus strain Newman); test: crystal structure; apo SaRelP, 15 mg/ml, sitting drop at room temperature, 0.1 M CHES pH 9.5, 40% (v/v) PEG600; 2.25 Å; homotetramer
[7] = target: the molecule itself; test: crystal structure; apo BsRelP, 10 mg/ml, sitting drop at room temperature, 0.1 M CHES pH 9.5, 30% (w/v) PEG 3000; 3.3 Å; homotetramer

T3 sequence (O31611 whole entry E178A): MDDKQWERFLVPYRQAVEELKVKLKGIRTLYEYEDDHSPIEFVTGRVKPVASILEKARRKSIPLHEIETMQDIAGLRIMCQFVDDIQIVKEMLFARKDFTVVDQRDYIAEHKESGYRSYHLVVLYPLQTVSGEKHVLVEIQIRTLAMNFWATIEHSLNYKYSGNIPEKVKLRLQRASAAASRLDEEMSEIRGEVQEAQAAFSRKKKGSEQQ
T6 sequence (O31611 whole entry H111A): as the sequence (O31611 whole entry E178A) above, with H111A, A178E counted along it
T2 sequence (O31611 whole entry E113A): as the sequence (O31611 whole entry E178A) above, with E113A, A178E counted along it
T5 sequence (O31611 whole entry Q174A): as the sequence (O31611 whole entry E178A) above, with Q174A, A178E counted along it

Molecule: Nc1ncnc2c1ncn2[C@@H]1O[C@H](COP(=O)(O)CP(=O)(O)OP(=O)(O)O)[C@@H](O)[C@H]1O [AMPCPP]
- X-ray crystal structure (SaRelP): solve the structure of SaRelP in presence of AMPCPP

Molecule: Nc1nc2c(ncn2[C@@H]2O[C@H](COP(=O)(O)OP(=O)(O)OP(=O)(O)O)[C@@H](OP(=O)(O)OP(=O)(O)O)[C@H]2O)c(=O)[nH]1 [pppGpp]
- stimulation of ppGpp synthesis, HPLC (BsRelQ [1]): Variation of His111 and Glu113 does not affect stimulation of BsRelQ
- stimulation of ppGpp synthesis, HPLC (BsRelQ [2]): upon replacement of Gln174 and Glu178 the pppGpp-stimulatory effect is decreased
- stimulation of ppGpp synthesis, HPLC (BsRelQ [3]): determining the (p)ppGpp synthesis BsRelQ in presence of different concentrations of pppGpp
- stimulation of ppGpp synthesis, HPLC (BsRelQ [4]): upon replacement of Gln174 and Glu178 the pppGpp-stimulatory effect is decreased
- stimulation of ppGpp synthesis, HPLC (BsRelQ [5]): Variation of His111 and Glu113 does not affect stimulation of BsRelQ

Molecule: RelP from Staphylococcus aureus (SaRelP) (enzyme)
- stoichiometry N [6]: 4

B1: RelP from Bacillus subtilis (BsRelP) (enzyme, Bacillus subtilis PY79)
chain: MDLSVTHMDDLKTVMEDWKNELLVYKFALDALDTKFSIISQEYNLIHGHNPIEHTKSRVKSFESIVNKLMRKGCEITTKEMKEHIHDIAGVRIICSFISDIYNVVNVLKQHEDLRIVKVKDYIQTPKPNGYRSLHLIIEMPVNLTNRVEYVKAEIQIRTIAMDFWASLEHKIYYKLNNDVPKQLTDELKEAAEIAHYLDEKMLGIKKEVD
notes: RelP (SAS2, YwaC), small (p)ppGpp synthetase of Bacillus subtilis PY79, gene ywaC, amplified from genomic DNA; The strep-tag was encoded by the forward primer; cloned into pET24d(+) at NcoI/XhoI; No tag cleavage is described; also called SAS2; YwaC; source: E. coli BL21 (DE3), purified (StrepTrap, SEC)
- stoichiometry N [7]: 4
